This is an account of results in patent US20150111815A1, “NOVEL CYCLOSPORIN DERIVATIVES FOR THE TREATMENT AND PREVENTION OF VIRAL INFECTIONS” (S&T Global Inc., priority 2011, published 2015).

Like-named read-outs stand apart in the source and are kept apart here. *1 amine or outer side, *2 acyl side, *3 side chain or, on linkers, in order; H or OH if unused. Where a SMILES comes first, the peptide text is derived from it. [ ]: non-standard residue; d: D form. ξ: configuration not given here. MeBmt = C/C=C/C[C@@H](C)[C@@H](O)[C@H](NC)C(=O)O; X2 = C=CCOC(C)(C)C[C@@H](C(=O)[*:2])N(C)[*:1]; X1 = CCN(CC)CC[C@H](C(=O)[*:2])N(C)[*:1]; X3 = CN(C)CCC[C@H](C(=O)[*:2])N(C)[*:1]; dNMeDab(Me2) = CN[C@H](CCN(C)C)C(=O)O; NMeIle(3ξ) = CCC(C)[C@H](NC)C(=O)O; NMeL = CN[C@@H](CC(C)C)C(=O)O; NMeV = CN[C@H](C(=O)O)C(C)C; Abu = CC[C@H](N)C(=O)O

One experiment deals with HCV. As to conditions: reported in Hopkins, S. et al., 2010; read-out: in vitro anti-HCV activity (EC50); cited from earlier work.
The test system of experiment [1] is HCV replicon in cell line ET (luc-ubi-neo/ET), Huh7 human hepatoma cells. Put plainly: HCV subgenomic replicon assay (luciferase end point). The format is cell-based. How it is done:
The anti-HCV activity of cyclosporine derivatives were evaluated in the HCV subgenomic replicon assay. The assay use the cell line ET (luc-ubi-neo/ET), which is a Huh7 human hepatoma cell line harboring an HCV replicon with a stable luciferase (Luc) reporter. HCV RNA replication was assessed by quantifying HCV replicon-derived luciferase activity. The antiviral activity of cyclosporine analogs were evaluated after drug treatment, the EC 50 and EC 90 were determined in subsequent assessments by using the luciferase end point (Krieger, N., et al., 2001, J. Virol. 75, 4614-4624; Pietschmann, T., et al., 2002, J. Virol. 76, 4008-4021; each of which is incorporated herein by reference).
(In general: A replicon is a self-replicating genome or part of one, used to study replication in cells.)

Where [2] appears, read: Hepatitis C virus, Huh-7, read-out: Antiviral activity: IC50 (μM).
Where [3] appears, read: HCV replicon-derived luciferase activity, Huh7 ET cells, read-out: Antiviral activity: IC50.

Turning to `C/C=C/C[C@@H](C)[C@@H](O)[C@H]1C(=O)N[C@@H](CC)C(=O)N(C)[C@H](SCCN(C)C)C(=O)N(C)[C@@H](CC(C)(C)O)C(=O)N[C@@H](C(C)C)C(=O)N(C)[C@@H](CC(C)C)C(=O)N[C@@H](C)C(=O)N[C@H](C)C(=O)N(C)[C@@H](CC(C)C)C(=O)N(C)[C@@H](CC(C)C)C(=O)N(C)[C@@H](C(C)C)C(=O)N1C` [SCY-635], the EC50 (usually the concentration needed to bring the measured effect to its halfway point) with HCV was 100 nM. On to `C/C=C/C[C@@H](C)[C@@H](O)[C@H]1C(=O)N[C@@H](CC)C(=O)N(C)[C@H](CCN(C)C)C(=O)N(C)[C@@H](C(C)CC)C(=O)N[C@@H](C(C)C)C(=O)N(C)[C@@H](CC(C)C)C(=O)N[C@@H](C)C(=O)N[C@H](C)C(=O)N(C)[C@@H](CC(C)C)C(=O)N(C)[C@@H](CC(C)C)C(=O)N(C)[C@@H](C(C)C)C(=O)N1C` (stereo partly drawn) [Example 24, [(R)-2-(N,N-Dimethylamino)ethyl-Sar]-3-[NMeIle]-4-cyclosporin] (cyclo(A[dA][NMeL][NMeL][NMeV][MeBmt][Abu][dNMeDab(Me2)][NMeIle(3ξ)]V[NMeL])), for which the IC50 (usually the concentration that inhibits the measured activity by half) in experiment [1] (setting [2]) is below 0.25 µM. Still for that read-out and setting: the value for `C/C=C/C[C@@H](C)[C@@H](O)[C@H]1C(=O)N[C@@H](CC)C(=O)N(C)[C@H](CCCN(C)C)C(=O)N(C)[C@@H](C(C)CC)C(=O)N[C@@H](C(C)C)C(=O)N(C)[C@@H](CC(C)C)C(=O)N[C@@H](C)C(=O)N[C@H](C)C(=O)N(C)[C@@H](CC(C)C)C(=O)N(C)[C@@H](CC(C)C)C(=O)N(C)[C@@H](C(C)C)C(=O)N1C` (stereo partly drawn) [Example 45, [(R)-3-(N,N-Dimethylamino)propyl-Sar]-3-[NMeIle]-4-cyclosporin] (cyclo(A[dA][NMeL][NMeL][NMeV][MeBmt][Abu][X3][NMeIle(3ξ)]V[NMeL])) was below 0.25 µM; that for `C/C=C/C[C@@H](C)[C@@H](O)[C@H]1C(=O)N[C@@H](CC)C(=O)N(C)[C@H](CCCN(C)C)C(=O)N(C)[C@@H](C(C)C)C(=O)N[C@@H](C(C)C)C(=O)N(C)[C@@H](CC(C)C)C(=O)N[C@@H](C)C(=O)N[C@H](C)C(=O)N(C)[C@@H](CC(C)C)C(=O)N(C)[C@@H](CC(C)C)C(=O)N(C)[C@@H](C(C)C)C(=O)N1C` [Example 43, [(R)-3-(N,N-Dimethylamino)propyl-Sar]-3-[NMeVal]-4-cyclosporin] (cyclo(A[dA][NMeL][NMeL][NMeV][MeBmt][Abu][X3][NMeV]V[NMeL])) was below 0.25 µM; that for `C/C=C/C[C@@H](C)[C@@H](O)[C@H]1C(=O)N[C@@H](CC)C(=O)N(C)[C@H](CCN(C)C)C(=O)N(C)[C@@H](CC(C)(C)OC)C(=O)N[C@@H](C(C)C)C(=O)N(C)[C@@H](CC(C)C)C(=O)N[C@@H](C)C(=O)N[C@H](C)C(=O)N(C)[C@@H](CC(C)C)C(=O)N(C)[C@@H](CC(C)C)C(=O)N(C)[C@@H](C(C)C)C(=O)N1C` [Example 21, [(R)-2-(N,N-Dimethylamino)ethyl-Sar]-3-[(γ-methoxy)-NMeLeu]-4-cyclosporin] was below 0.25 µM. Same read-out and setting: the value for `C/C=C/C[C@@H](C)[C@@H](O)[C@H]1C(=O)N[C@@H](CC)C(=O)N(C)[C@H](CCN(CC)CC)C(=O)N(C)[C@@H](C(C)CC)C(=O)N[C@@H](C(C)C)C(=O)N(C)[C@@H](CC(C)C)C(=O)N[C@@H](C)C(=O)N[C@H](C)C(=O)N(C)[C@@H](CC(C)C)C(=O)N(C)[C@@H](CC(C)C)C(=O)N(C)[C@@H](C(C)C)C(=O)N1C` (stereo partly drawn) [Example 30, [(R)-2-(N,N-Diethylamino)ethyl-Sar]-3-[NMeIle]-4-cyclosporin] (cyclo(A[dA][NMeL][NMeL][NMeV][MeBmt][Abu][X1][NMeIle(3ξ)]V[NMeL])) was below 0.25 µM. For the compound “[(S)-2-(N,N-Diethylamino)ethyl-Sar]-3-cyclosporin”, the IC50 in experiment [1] (setting [3]) was below 5 µM. Take `C/C=C/C[C@@H](C)[C@@H](O)[C@H]1C(=O)N[C@@H](CC)C(=O)N(C)C(CCCN(C)C)C(=O)N(C)[C@@H](CC(C)C)C(=O)N[C@@H](C(C)C)C(=O)N(C)[C@@H](CC(C)C)C(=O)N[C@@H](C)C(=O)N[C@H](C)C(=O)N(C)[C@@H](CC(C)C)C(=O)N(C)[C@@H](CC(C)C)C(=O)N(C)[C@@H](C(C)C)C(=O)N1C` (stereo partly drawn) [[(R,S)-3-(N,N-Dimethylamino)propyl-Sar]-3-cyclosporin]: the IC50 in experiment [1] (setting [3]) was below 1.5 µM. Consider `C=CCOC(C)(C)C[C@H]1C(=O)N[C@@H](C(C)C)C(=O)N(C)[C@@H](CC(C)C)C(=O)N[C@@H](C)C(=O)N[C@H](C)C(=O)N(C)[C@@H](CC(C)C)C(=O)N(C)[C@@H](CC(C)C)C(=O)N(C)[C@@H](C(C)C)C(=O)N(C)[C@@H]([C@H](O)[C@H](C)C/C=C/C)C(=O)N[C@@H](CC)C(=O)N(C)[C@H](CCCN(C)C)C(=O)N1C` [Example 41, [(R)-3-(N,N-Dimethylamino)propyl-Sar]-3-[(γ-allyloxy)-NMeLeu]-4-cyclosporin] (cyclo(A[dA][NMeL][NMeL][NMeV][MeBmt][Abu][X3][X2]V[NMeL])), for which the IC50 in experiment [1] (setting [2]) was below 0.25 µM. Consider `C/C=C/C[C@@H](C)[C@@H](O)[C@H]1C(=O)N[C@@H](CC)C(=O)N(C)[C@H](CCN(CC)CC)C(=O)N(C)[C@@H](CC(C)(C)O)C(=O)N[C@@H](C(C)C)C(=O)N(C)[C@@H](CC(C)C)C(=O)N[C@@H](C)C(=O)N[C@H](C)C(=O)N(C)[C@@H](CC(C)C)C(=O)N(C)[C@@H](CC(C)C)C(=O)N(C)[C@@H](C(C)C)C(=O)N1C` [Example 26, [(R)-2-(N,N-Diethylamino)ethyl-Sar]-3-[(γ-hydroxy)-NMeLeu]-4-cyclosporin], for which the IC50 in experiment [1] (setting [2]) was below 0.25 µM. With “[(R,S)-2-(N,N-Dimethylamino)ethyl-Sar]-3-cyclosporin”, the IC50 in experiment [1] (setting [3]) was below 1.5 µM.

In the case of `C=CCOC(C)(C)C[C@H]1C(=O)N[C@@H](C(C)C)C(=O)N(C)[C@@H](CC(C)C)C(=O)N[C@@H](C)C(=O)N[C@H](C)C(=O)N(C)[C@@H](CC(C)C)C(=O)N(C)[C@@H](CC(C)C)C(=O)N(C)[C@@H](C(C)C)C(=O)N(C)[C@@H]([C@H](O)[C@H](C)C/C=C/C)C(=O)N[C@@H](CC)C(=O)N(C)[C@H](CCN(C)C)C(=O)N1C` [Example 22, [(R)-2-(N,N-Dimethylamino)ethyl-Sar]-3-[(γ-allyloxy)-NMeLeu]-4-cyclosporin] (cyclo(A[dA][NMeL][NMeL][NMeV][MeBmt][Abu][dNMeDab(Me2)][X2]V[NMeL])), in experiment [1] (setting [2]), the IC50 was below 0.25 µM. With `C/C=C/C[C@@H](C)[C@@H](O)[C@H]1C(=O)N[C@@H](CC)C(=O)N(C)[C@H](CCN(CC)CC)C(=O)N(C)[C@@H](CC(C)(C)OC)C(=O)N[C@@H](C(C)C)C(=O)N(C)[C@@H](CC(C)C)C(=O)N[C@@H](C)C(=O)N[C@H](C)C(=O)N(C)[C@@H](CC(C)C)C(=O)N(C)[C@@H](CC(C)C)C(=O)N(C)[C@@H](C(C)C)C(=O)N1C` [Example 27, [(R)-2-(N,N-Diethylamino)ethyl-Sar]-3-[(γ-methoxy)-NMeLeu]-4-cyclosporin], in experiment [1] (setting [2]), the IC50 was below 0.25 µM. Take `C/C=C/C[C@@H](C)[C@@H](O)[C@H]1C(=O)N[C@@H](CC)C(=O)N(C)[C@H](CCCN(C)C)C(=O)N(C)[C@@H](CC(C)(C)OC)C(=O)N[C@@H](C(C)C)C(=O)N(C)[C@@H](CC(C)C)C(=O)N[C@@H](C)C(=O)N[C@H](C)C(=O)N(C)[C@@H](CC(C)C)C(=O)N(C)[C@@H](CC(C)C)C(=O)N(C)[C@@H](C(C)C)C(=O)N1C` [Example 39, [(R)-3-(N,N-Dimethylamino)propyl-Sar]-3-[(γ-methoxy)-NMeLeu]-4-cyclosporin]: the IC50 in experiment [1] (setting [2]) is below 0.25 µM. For the compound “[(R)-2-(N,N-Dimethylamino)ethyl-Sar]-3-[NMeLeu]-4-cyclosporin”, the IC50 in experiment [1] (setting [3]) is below 0.25 µM.
